Holding throughout (type): functional
The species named for assay [1] is Rattus norvegicus. In words: Effect of compound on rat thoracic aorta constriction in rat at 10e-5 M concentration; No effect.
The species entered for assay [2] is Rattus norvegicus. In words: Compound was tested for maximal contraction of rat thoracic aorta.
For assay [3], the species on record is Rattus norvegicus. In words: Effect of compound on rat thoracic aorta constriction in rat.

Structures are written as SMILES. Activity calls are given as the source filed them. No cut-off for these calls is given here.

These results are taken from ChEMBL document CHEMBL1133959, “Syntheses and preliminary pharmacological evaluation of the two epimers of the 5-F2t-isoprostane” (2001).

Usually Emax stands for the size of the effect at its maximum, as opposed to the concentration needed.

Regarding `CCCCC/C=C\C[C@@H]1[C@H](/C=C/[C@@H](O)CCCC(=O)OC)[C@@H](O)C[C@H]1O`, in assay [1], the pD2 entry is “inactive”.

In the case of `CCCCC[C@H](O)/C=C/[C@H]1C2CC(CO2)[C@@H]1C/C=C\CCCC(=O)O` (some centres undefined), in assay [2], the Emax turned out to be 189%. The pD2 in assay [3] worked out at 7.8.

As to `CCCCC/C=C\C[C@@H]1[C@H](/C=C/[C@H](O)CCCC(=O)OC)[C@@H](O)C[C@H]1O`, the pD2 entry in assay [1] is “inactive”.
